In ChEMBL document CHEMBL1129374 (J Med Chem, 1996):

Legend:
[1] = target: T1, Folylpolyglutamate synthase, mitochondrial (Homo sapiens, UniProt Q05932); experiment: Compound was evaluated for the inhibitory activity against Folyl-polyglutamate synthase from CCRF-CEM human leukemia cells.; format: cell-based
T1 sequence (Q05932 whole entry): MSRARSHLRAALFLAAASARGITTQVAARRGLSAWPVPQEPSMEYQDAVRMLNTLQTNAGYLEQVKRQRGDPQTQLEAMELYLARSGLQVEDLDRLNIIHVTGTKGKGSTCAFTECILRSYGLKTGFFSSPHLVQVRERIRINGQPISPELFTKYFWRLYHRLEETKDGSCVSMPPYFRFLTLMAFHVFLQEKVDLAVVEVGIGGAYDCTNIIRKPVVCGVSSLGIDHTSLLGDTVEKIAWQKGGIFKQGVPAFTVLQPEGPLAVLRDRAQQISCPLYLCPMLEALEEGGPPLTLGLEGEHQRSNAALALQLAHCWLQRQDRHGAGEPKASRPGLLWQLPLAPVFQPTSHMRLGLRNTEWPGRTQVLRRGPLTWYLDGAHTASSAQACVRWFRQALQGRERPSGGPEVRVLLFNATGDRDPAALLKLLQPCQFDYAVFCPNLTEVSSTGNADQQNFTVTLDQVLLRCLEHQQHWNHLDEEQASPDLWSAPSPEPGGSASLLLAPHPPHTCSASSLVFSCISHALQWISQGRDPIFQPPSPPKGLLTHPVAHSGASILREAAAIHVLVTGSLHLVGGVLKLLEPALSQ

Dihydrofolate reductase = target: T2, Dihydrofolate reductase (Mus musculus, UniProt P00375); experiment: compound was evaluated for the inhibitory activity against Dihydrofolate reductase in permeabilised L1210 cells.; format: cell-based
T2 sequence (P00375 whole entry): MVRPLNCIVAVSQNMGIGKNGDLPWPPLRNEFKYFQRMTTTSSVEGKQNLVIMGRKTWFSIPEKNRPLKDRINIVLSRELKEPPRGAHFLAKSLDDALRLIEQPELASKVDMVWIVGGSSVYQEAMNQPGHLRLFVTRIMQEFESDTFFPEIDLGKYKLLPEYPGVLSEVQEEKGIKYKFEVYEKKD

L1210 [2] = experiment: Compound was evaluated for the inhibition of L1210 murine leukemia cell growth.; format: functional, cell-based; conditions: Mus musculus
L1210 [3] = experiment: Compound was evaluated for the inhibition of L1210 murine leukemia cell growth.(From ref 12b); conditions: Mus musculus
L1210 [4] = experiment: Compound was evaluated for the inhibition of L1210 murine leukemia cell growth.(In this study); conditions: Mus musculus

| IC50 [1] [µM] | IC50 (Dihydrofolate reductase) [µM] | IC50 (L1210 [2]) [µM] | IC50 (L1210 [3]) [µM] | IC50 (L1210 [4]) [µM] | SMILES |
| --- | --- | --- | --- | --- | --- |
| > 200 | 1.3 | 0.091 |  |  | CN(Cc1cnc2nc(N)nc(N)c2n1)c1ccc(C(=O)NC(Cc2cnc[nH]2)C(=O)O)cc1 (configuration not stated) |
| > 200 | > 100 | > 100 |  |  | Nc1nc2ncc(CNc3ccc(C(=O)NC(Cc4cnc[nH]4)C(=O)O)cc3)nc2c(=O)[nH]1 (configuration not stated) |
| 3.2 |  |  | 1.3 | 0.007 | CN(Cc1cnc2nc(N)nc(N)c2n1)c1ccc(C(=O)N[C@@H](CCC(=O)O)C(=O)O)cc1 [METHOTREXATE] |

| SMILES | IC50 [1] [µM] | IC50 (Dihydrofolate reductase) [µM] | IC50 (L1210 [2]) [µM] | IC50 (L1210 [3]) [µM] | IC50 (L1210 [4]) [µM] |
| --- | --- | --- | --- | --- | --- |
| CN(Cc1cnc2nc(N)nc(N)c2n1)c1ccc(C(=O)NC(Cc2cn(CC(=O)O)cn2)C(=O)O)cc1 (configuration not stated) | > 200 | 0.37 | 0.15 |  |  |
